Tests used:
[1] = target: HIV-1 protease (Human immunodeficiency virus type 1 group M subtype B, UniProt P04585); assay: Fluorescence HIV-1 Protease Inhibitor Assay (Pandex); type: biochemical; design: made in house; host or cells: E. coli K12 L507/pHP10D (NRRL B-18560); settings: normalized to positive control (=1.0); * = a calculated average; read-out: Fluorescence Assay IC50 in ng/mL (converted)

| Structure (SMILES) | melting point [°C] | IC50 [1] [nM] |
| --- | --- | --- |
| CC(C)(C)NC(=O)c1ccccc1CC(O)C(CSc1ccc2ccccc2c1)NC(=O)c1ccc(N)c(O)c1 (stereo not drawn) [Example 73, [2′R-(2′R*,3′S*)]-N-t-Butyl-2-[2′-hydroxy-3′-naphth-2-ylthiomethyl-4′-aza-5′-oxo-5′-(3″-hydroxy-4″-aminophenyl)pentyl] benzamide] | 119 to 122 | 3480 |
| CC(C)(C)NC(=O)c1ccccc1C[C@@H](O)[C@@H](CSc1ccc2ccccc2c1)NC(=O)c1cccc(N)c1Cl [Example 44, [2′R-(2′R*,3′S*)]-N-t-Butyl-2-[2′-hydroxy-3′-naphth-2-ylthiomethyl-4′-aza-5′-oxo-5′-(2″-chloro-3″-aminophenyl)pentyl] benzamide] | 107 to 108 | 121 |
| CC(C)(C)NC(=O)c1ccccc1C[C@@H](O)[C@@H](CSc1ccc2ccccc2c1)NC(=O)c1ccnc2ccccc12 [Example 66, [2′R-(2′R*,3′S*)]-N-t-Butyl-2-[2′-hydroxy-3′-naphth-2-ylthiomethyl-4′-aza-5′-oxo-5′-(quinolin-4″-yl)pentyl] benzamide] | 89 to 92 | 474 |
| Cc1c(C(=O)NC(CSc2ccc3ccccc3c2)C(O)Cc2ccccc2C(=O)NC(C)(C)C)cccc1[N+](=O)[O-] (stereo not drawn) [Example 67, [2′R-(2′R*,3′S*)]-N-t-Butyl-2-[2′-hydroxy-3′-naphth-2-hiomethyl-4′-aza-5′-oxo-5′-(2″-methyl-3″-nitrophenyl)pentyl] benzamide] | 80 to 81 | 927 |
| CC(C)(C)NC(=O)c1ccccc1CC(O)C(CSc1ccc2ccccc2c1)NC(=O)c1cccc(N)c1 (stereo not drawn) [Example 50, [2′R-(2′R*,3′S*)]-N-t-Butyl-2-[2′-hydroxy-3′-naphth-2-ylthiomethyl-4′-aza-5′-oxo-5′-(3″-aminophenyl)pentyl] benzamide] | 101 to 102 | 222 |
| CC(C)(C)NC(=O)c1ccccc1C[C@@H](O)[C@@H](CSc1ccc2ccccc2c1)NC(=O)c1cccc2ccccc12 [Example 61, [2′R-(2′R*,3′S*)]-N-t-Butyl-2-[2′-hydroxy-3′-naphth-2-ylthiomethyl-4′-aza-5′-oxo-5′-(naphth-1″-yl)pentyl] benzamide] | 92 to 95 | 2770 |
| CC(C)(C)NC(=O)c1c(CC(O)C(CSc2ccc3ccccc3c2)NC(=O)c2cccc(N)c2Cl)ccc2ccccc12 (stereo not drawn) [Example 49, [2′R-(2′R*,3′S*)]-N-t-Butyl-2-[2′-hydroxy-3′-naphth-2-ylthiomethyl-4′-aza-5′-oxo-5′-(2″-chloro-3″-aminophenyl)pentyl]-1-naphthylamide] | 110 to 112 | 137 |
